# From US20130310256A1, “HERBICIDAL COMPOSITIONS COMPRISING 4-AMINO-3-CHLORO-5-FLUORO-6-(4-CHLORO-2-FLUORO-3-METHOXYPHENYL) PYRIDINE-2-CARBOXYLIC ACID OR A DERIVATIVE THEREOF AND VLCFA AND LIPID SYNTHESIS INHIBITING HERBICIDES” (DOW AGROSCIENCES LLC, priority 2008, published 2013)
# Assays:
# [1] = test system: CYPES; assay: Example I: postemergence foliar-applied weed control, greenhouse; type: in vivo, Cyperus esculentus L. (yellow nutsedge)
# [2] = test system: XANST; assay: Example IV: pre-emergence soil-applied weed control, greenhouse; type: in vivo, Xanthium strumarium L. (common cocklebur); settings: 32 gae/ha, 29 DAA
# From the text: (§1) Seeds or nutlets of the desired test plant species were planted in a soil matrix prepared by mixing a loam soil (32 percent silt, 23 percent clay, and 45 percent sand, with a pH of about 6.5 and an organic matter content of about 1.9 percent) and calcareous grit in an 80 to 20 ratio. The soil matrix was contained in plastic pots with a volume of 1 quart and a surface area of 83.6 square centimeters (cm^2).
# (§2) Treatments consisted of the benzyl ester of 4-amino-3-chloro-5-fluoro-6-(4-chloro-2-fluoro-3-methoxy-phenyl)pyridine-2-carboxylic acid (compound A) formulated as an SC (suspension concentrate) and various herbicidal components alone and in combination. Forms of compound A were applied on an acid equivalent basis.
# (§3) Other herbicidal components were applied on an active ingredient basis and included very long chain fatty acid (VLCFA) synthesis-inhibiting and fatty acid/lipid synthesis-inhibiting herbicides alachlor (technical grade material), dimethenamid-P formulated as Outlook®, and S-metolachlor formulated as Dual® II Magnum.
# (§4) Treatment requirements were calculated based upon the rates being tested, the concentration of active ingredient or acid equivalent in the formulation, and a 12 mL application volume at a rate of 187 L/ha.
# (§5) For treatments comprised of formulated compounds, measured amounts of compounds were placed individually in 25 mL glass vials and diluted in a volume of 1.25% (v/v) Agri-Dex® crop oil concentrate (COC) to obtain 12× stock solutions. […] Application solutions were prepared by adding an appropriate amount of each stock solution (e.g., 1 mL) and diluted to the appropriate final concentrations with the addition of 10 mL of an aqueous mixture of 1.25% (v/v) COC so that the final spray solutions contained 1.25% (v/v) COC.
# For treatments comprised of technical compounds, weighed amounts can be placed individually in 25 mL glass vials and dissolved in a volume of 97:3 (v/v) acetone/DMSO to obtain 12× stock solutions. […] Application solutions can be prepared by adding an appropriate amount of each stock solution (e.g., 1 mL) and diluted to the appropriate final concentrations with the addition of 10 mL of an aqueous mixture of 1.5% (v/v) COC so that the final spray solutions contain 1.25% (v/v) COC. […]
# For treatments comprised of formulated and technical compounds, weighed amounts of the technical materials were placed individually in 25 mL glass vials and dissolved in a volume of 97:3 (v/v) acetone/DMSO to obtain 12× stock solutions, and measured amounts of the formulated compounds were placed individually in 25 mL glass vials and diluted in a volume of 1.5% (v/v) COC or water to obtain 12× stock solutions. […]
# [3] = test system: SASKR; assay: Example III: post-emergence foliar-applied weed control in cereal crops, greenhouse; type: in vivo, Salsola tragus L.; settings: 21 DAA
# Experimental: (§6) Seeds of the desired test plant species were planted in Sun Gro MetroMix® 306 planting mixture, which typically has a pH of 6.0 to 6.8 and an organic matter content of about 30 percent, in plastic pots with a surface area of 103.2 square centimeters (cm^2). When required to ensure good germination and healthy plants, a fungicide treatment and/or other chemical or physical treatment was applied. The plants were grown for 7-36 days in a greenhouse with an approximate 14 hour photoperiod which was maintained at about 18° C. during the day and 17° C. during the night. Nutrients and water were added on a regular basis and supplemental lighting was provided with overhead metal halide 1000-Watt lamps as necessary. The plants were employed for testing when they reached the second or third true leaf stage.
# (§7) Treatments consisted of the benzyl ester of 4-amino-3-chloro-5-fluoro-6-(4-chloro-2-fluoro-3-methoxy-phenyl)pyridine-2-carboxylic acid (Compound A), formulated as an SC (suspension concentrate), and a second cereal herbicide alone and in combination.
# (§8) Measured aliquots of the benzyl ester of 4-amino-3-chloro-5-fluoro-6-(4-chloro-2-fluoro-3-methoxy-phenyl)pyridine-2-carboxylic acid (Compound A) were placed in 25 milliliter (mL) glass vials and diluted in a volume of 1.25% (v/v) Agri-dex crop oil concentrated to obtain stock solutions. Compound requirements are based upon a 12 mL application volume at a rate of 187 liters per hectare (L/ha). Spray solutions of the second cereal herbicide and experimental compound mixtures were prepared by adding the stock solutions to the appropriate amount of dilution solution to form 12 mL spray solution with active ingredients in two- and three-way combinations. Formulated compounds were applied to the plant material with an overhead Mandel track sprayer equipped with an 8002E nozzle calibrated to deliver 187 L/ha over an application area of 0.503 square meters (m^2) at a spray height of 18 inches (46 cm) above average plant canopy. Control plants were sprayed in the same manner with the solvent blank.
# (§9) The treated plants and control plants were placed in a greenhouse as described above and watered by sub-irrigation to prevent wash-off of the test compounds. After 20-22 days, the condition of the test plants as compared with that of the control plants was determined visually and scored on a scale of 0 to 100 percent where 0 corresponds to no injury and 100 corresponds to complete kill.
# (§10) Colby's equation was used to determine the herbicidal effects expected from the mixtures (Colby, S. R. 1967. Calculation of the synergistic and antagonistic response of herbicide combinations. Weeds 15:20-22.).
# [4] = test system: KCHSC; assay: as above; type: in vivo, Kochia scoparia (L.) Schrad.; settings: 21 DAA
# Experimental: as §6, §7, §8, §9, §10
# [5] = test system: CHEAL; assay: as above; type: in vivo, Chenopodium album L.; settings: 21 DAA
# Experimental: as §6, §7, §8, §9, §10
# [6] = test system: IPOHE; assay: Example IV: pre-emergence soil-applied weed control, greenhouse; type: in vivo, Ipomoea hederacea Jacq. (ivyleaf morningglory)
# From the text: as §1, §2, §3, §4, §5
# For treatments comprised of technical compounds, weighed amounts can be placed individually in 25 mL glass vials and dissolved in a volume of 97:3 (v/v) acetone/DMSO to obtain 12× stock solutions. […] Application solutions can be prepared by adding an appropriate amount of each stock solution (e.g., 1 mL) and diluted to the appropriate final concentrations with the addition of 10 mL of an aqueous mixture of 1.5% (v/v) COC so that the final spray solutions contain 1.25% (v/v) COC. When technical materials are used, the concentrated stock solutions can be added to the spray solutions so that the final acetone and DMSO concentrations of the application solutions are 16.2% and 0.5%, respectively.
# For treatments comprised of formulated and technical compounds, weighed amounts of the technical materials were placed individually in 25 mL glass vials and dissolved in a volume of 97:3 (v/v) acetone/DMSO to obtain 12× stock solutions, and measured amounts of the formulated compounds were placed individually in 25 mL glass vials and diluted in a volume of 1.5% (v/v) COC or water to obtain 12× stock solutions. […] Application solutions were prepared by adding an appropriate amount of each stock solution (e.g., 1 mL) and diluted to the appropriate final concentrations with the addition of an appropriate amount of an aqueous mixture of 1.5% (v/v) COC so that the final spray solutions contained 1.25% (v/v) COC. As required, additional water and/or 97:3 (v/v) acetone/DMSO was added to individual application solutions so that the final acetone and DMSO concentrations of the application solutions being compared were 8.1% and 0.25%, respectively.
# All stock solutions and applications solutions were visually inspected for compound compatibility prior to application. Spray solutions were applied to the soil with an overhead Mandel track sprayer equipped with a 8002E nozzles calibrated to deliver 187 L/ha over an application area of 0.503 m^2 at a spray height of 18 inches (46 cm) above average pot height. Control pots were sprayed in the same manner with the solvent blank.
# The treated and control pots were placed in a greenhouse and top watered as needed. […]
compound,measurement,setting,value
"COc1c(Cl)ccc(-c2nc(C(=O)OCc3ccccc3)c(Cl)c(N)c2F)c1F [Compound A Benzyl Ester, benzyl ester of 4-amino-3-chloro-5-fluoro-6-(4-chloro-2-fluoro-3-methoxy-phenyl)pyridine-2-carboxylic acid]",Visual Weed Control (%) - 20 DAA CYPES Obs,[1]; 8 gae/ha,0%
same,Visual Weed Control (%) - 21 DAA CYPES Obs,[1]; 8 gae/ha,85%
same,Visual Weed Control (%) - 20 DAA CYPES Obs,[1]; 16 gae/ha,75%
same,Visual Weed Control XANST Obs,[2],5%
same,Visual Weed Control SASKR Obs,[3]; 2.5 gai/ha,15%
same,Visual Weed Control SASKR Obs,[3]; 5 gai/ha,50%
same,Visual Weed Control SASKR Obs,[3]; 10 gai/ha,67%
same,Visual Weed Control KCHSC Obs,[4]; 2.5 gai/ha,20%
same,Visual Weed Control KCHSC Obs,[4]; 5 gai/ha,41%
same,Visual Weed Control KCHSC Obs,[4]; 10 gai/ha,62%
same,Visual Weed Control CHEAL Obs,[5]; 2.5 gai/ha,50%
same,Visual Weed Control CHEAL Obs,[5]; 5 gai/ha,58%
same,Visual Weed Control IPOHE Obs,"[6]; 16 gae/ha, 28 DAA",13%
same,Visual Weed Control IPOHE Obs,"[6]; 32 gae/ha, 27 DAA",28%
same,Visual Weed Control IPOHE Obs,"[6]; 32 gae/ha, 28 DAA",23%
